Reference: ChEMBL document CHEMBL4673362, “Design, synthesis, and biological evaluation of 2,6,7-substituted pyrrolo[2,3-d]pyrimidines as cyclin dependent kinase inhibitor in pancreatic cancer cells” (Bioorg Med Chem Lett, 2021)
In brackets after ≈: the same amount, converted by molar mass. Activity calls are given as the source filed them. The rule behind the calls is not given here.

Tests used:
MIA PaCa-2 [1] = experiment: Antiproliferative activity against human MIA PaCa-2 cells assessed as inhibition of cell growth by MTT assay; type: functional, cell-based
[2] = biological target: Cyclin-dependent kinase 6 (Homo sapiens) (UniProt Q00534); experiment: Inhibition of CDK6 (unknown origin) at 1 uM
[3] = biological target: Cyclin-dependent kinase 4/cyclin D1 (Homo sapiens, UniProt P11802); experiment: Inhibition of CDK4/cyclin D1 (unknown origin); type: protein-complex assay
CDK6/cyclin D1 = CDK6/cyclin D1 (Homo sapiens, UniProt Q00534); experiment: Inhibition of CDK6/cyclin D1 (unknown origin); type: protein-complex assay
[4] = biological target: Cyclin-dependent kinase 4 (Homo sapiens) (UniProt P11802); experiment: Inhibition of CDK4 (unknown origin) at 1 uM
BXPC-3 = experiment: Antiproliferative activity against human BxPC-3 cells assessed as inhibition of cell growth by MTT assay; type: functional, cell-based
[5] = Metabolic stability in human liver microsomes assessed as half life; type: ADME, Microsome
[6] = Metabolic stability in rat liver microsomes assessed as half life; type: ADME, Microsome
MIA PaCa-2 [7] = experiment: Cell cycle arrest in human MIA PaCa-2 cells assessed as accumulation at G2 phase at 2.5 uM (reference value: 10.64 %); type: functional
[8] = Permeability of the compound at pH 7.4 by PAMPA; type: ADME; details: read-out: permeability
[9] = Solubility of the compound at pH 7.4; type: physicochemical; details: buffer
MIA PaCa-2 [10] = experiment: Cell cycle arrest in human MIA PaCa-2 cells assessed as accumulation at G1 phase at 2.5 uM (reference value: 44.09 %); type: functional
MIA PaCa-2 [11] = experiment: Cell cycle arrest in human MIA PaCa-2 cells assessed as accumulation at S phase at 0.8 uM (reference value: 45.27 %); type: functional
MIA PaCa-2 [12] = experiment: Cell cycle arrest in human MIA PaCa-2 cells assessed as accumulation at S phase at 1.6 uM (reference value: 45.27 %); type: functional
MIA PaCa-2 [13] = experiment: Cell cycle arrest in human MIA PaCa-2 cells assessed as accumulation at G2 phase at 0.8 uM (reference value: 10.64 %); type: functional
MIA PaCa-2 [14] = experiment: Cell cycle arrest in human MIA PaCa-2 cells assessed as accumulation at G1 phase at 0.8 uM (reference value: 44.09 %); type: functional
[15] = Permeability of the compound at pH 5.0 by PAMPA; type: ADME; details: read-out: permeability
MIA PaCa-2 [16] = experiment: Cell cycle arrest in human MIA PaCa-2 cells assessed as accumulation at G1 phase at 1.6 uM (reference value: 44.09 %); type: functional
MIA PaCa-2 [17] = experiment: Cell cycle arrest in human MIA PaCa-2 cells assessed as accumulation at S phase at 2.5 uM (reference value: 45.27 %); type: functional
MIA PaCa-2 [18] = experiment: Cell cycle arrest in human MIA PaCa-2 cells assessed as accumulation at G2 phase at 1.6 uM (reference value: 10.64 %); type: functional
[19] = biological target: Mitogen-activated protein kinase kinase kinase 9 (Homo sapiens) (UniProt P80192); experiment: Inhibition of human MLK1 at 1 uM relative to control
[20] = biological target: Cyclin-dependent kinase 7 (Homo sapiens) (UniProt P50613); experiment: Inhibition of CDK7 (unknown origin) at 1 uM
[21] = biological target: CDK4/Cyclin D3 (Homo sapiens) (UniProt P11802+P30281); experiment: Inhibition of human CDK4/cyclin D3 at 1 uM relative to control; type: protein-complex assay
[22] = biological target: Cyclin-dependent kinase 1 (Homo sapiens) (UniProt P06493); experiment: Inhibition of CDK1 (unknown origin) at 1 uM
[23] = biological target: Dual specificity protein kinase TTK (Homo sapiens) (UniProt P33981); experiment: Inhibition of human TTK at 1 uM relative to control
[24] = biological target: Tyrosine-protein kinase Fer (Homo sapiens) (UniProt P16591); experiment: Inhibition of human FER at 1 uM relative to control
[25] = biological target: Calcium/calmodulin-dependent protein kinase type 1 (Homo sapiens) (UniProt Q14012); experiment: Inhibition of human CAMK1 at 1 uM relative to control
[26] = biological target: CDK6/cyclin D1 (Homo sapiens) (UniProt P24385+Q00534); experiment: Inhibition of human CDK6/cyclin D1 at 1 uM relative to control; type: protein-complex assay
[27] = biological target: Cyclin-dependent kinase 8 (Homo sapiens) (UniProt P49336); experiment: Inhibition of CDK8 (unknown origin) at 1 uM
[28] = biological target: Calcium/calmodulin-dependent protein kinase kinase 1 (Homo sapiens) (UniProt Q8N5S9); experiment: Inhibition of human CAMKKA at 1 uM relative to control
[29] = biological target: Cyclin-dependent kinase 5 (Homo sapiens) (UniProt Q00535); experiment: Inhibition of CDK5 (unknown origin) at 1 uM
[30] = biological target: Cyclin-dependent kinase 3 (Homo sapiens) (UniProt Q00526); experiment: Inhibition of CDK3 (unknown origin) at 1 uM
[31] = biological target: Cyclin-dependent kinase 9 (Homo sapiens) (UniProt P50750); experiment: Inhibition of CDK9 (unknown origin) at 1 uM
[32] = biological target: Cyclin-dependent kinase 2 (Homo sapiens) (UniProt P24941); experiment: Inhibition of CDK2 (unknown origin) at 1 uM
[33] = biological target: Cyclin-dependent kinase 4/cyclin D1 (Homo sapiens) (UniProt P11802+P24385); experiment: Inhibition of human CDK4/cyclin D1 at 1 uM relative to control; type: protein-complex assay
[34] = biological target: Cyclin-dependent kinase 9 (Homo sapiens) (UniProt P50750); experiment: Inhibition of CDK9 (unknown origin) at 1 uM relative to control

Chain of Cyclin-dependent kinase 4 (Homo sapiens) (P11802 whole entry): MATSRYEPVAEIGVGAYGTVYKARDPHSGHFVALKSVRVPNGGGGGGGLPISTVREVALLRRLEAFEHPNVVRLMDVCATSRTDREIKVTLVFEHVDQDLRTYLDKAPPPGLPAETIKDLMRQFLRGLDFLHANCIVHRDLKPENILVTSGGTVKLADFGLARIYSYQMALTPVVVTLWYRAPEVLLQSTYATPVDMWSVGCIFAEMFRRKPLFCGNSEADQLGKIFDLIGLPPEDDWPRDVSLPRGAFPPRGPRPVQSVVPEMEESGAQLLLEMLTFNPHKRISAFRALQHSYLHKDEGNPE
Chain of Cyclin-dependent kinase 4/cyclin D1 (P11802 whole entry): as above
Chain of Cyclin-dependent kinase 4/cyclin D1 (P24385 whole entry, further chain): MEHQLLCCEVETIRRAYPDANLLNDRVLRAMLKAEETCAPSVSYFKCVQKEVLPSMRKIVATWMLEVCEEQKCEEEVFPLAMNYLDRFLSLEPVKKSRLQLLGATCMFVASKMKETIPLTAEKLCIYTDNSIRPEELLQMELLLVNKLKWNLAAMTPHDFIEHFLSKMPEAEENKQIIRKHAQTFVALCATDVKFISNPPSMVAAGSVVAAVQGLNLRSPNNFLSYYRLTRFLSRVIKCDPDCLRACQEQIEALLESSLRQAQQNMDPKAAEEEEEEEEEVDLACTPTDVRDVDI
Chain of Cyclin-dependent kinase 6 (Homo sapiens) (Q00534 whole entry): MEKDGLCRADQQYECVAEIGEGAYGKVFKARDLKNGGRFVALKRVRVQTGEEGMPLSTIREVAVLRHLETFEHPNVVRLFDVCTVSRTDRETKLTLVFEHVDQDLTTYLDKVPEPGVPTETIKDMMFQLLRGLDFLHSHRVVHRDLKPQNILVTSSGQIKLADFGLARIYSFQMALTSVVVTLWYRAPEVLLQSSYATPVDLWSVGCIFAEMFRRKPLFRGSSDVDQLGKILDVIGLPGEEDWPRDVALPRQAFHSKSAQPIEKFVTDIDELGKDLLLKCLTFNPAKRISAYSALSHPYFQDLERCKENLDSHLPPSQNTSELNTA
Chain of CDK6/cyclin D1 (P24385 whole entry): as the sequence (P24385 whole entry, further chain) above
Chain of CDK6/cyclin D1 (Q00534 whole entry): as the sequence (Q00534 whole entry) above
Chain of Cyclin-dependent kinase 9 (Homo sapiens) (P50750 whole entry): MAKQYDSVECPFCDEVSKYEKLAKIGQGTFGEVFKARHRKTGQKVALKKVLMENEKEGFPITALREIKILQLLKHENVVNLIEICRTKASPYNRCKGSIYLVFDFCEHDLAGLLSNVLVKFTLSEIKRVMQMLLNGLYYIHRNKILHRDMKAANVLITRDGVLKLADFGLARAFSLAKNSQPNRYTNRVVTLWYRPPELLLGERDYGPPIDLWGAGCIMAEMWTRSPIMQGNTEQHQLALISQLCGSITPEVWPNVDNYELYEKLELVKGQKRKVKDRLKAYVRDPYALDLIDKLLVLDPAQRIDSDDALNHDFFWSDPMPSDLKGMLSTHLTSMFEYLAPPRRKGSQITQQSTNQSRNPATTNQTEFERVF
Chain of Cyclin-dependent kinase 3 (Homo sapiens) (Q00526 whole entry, looked up): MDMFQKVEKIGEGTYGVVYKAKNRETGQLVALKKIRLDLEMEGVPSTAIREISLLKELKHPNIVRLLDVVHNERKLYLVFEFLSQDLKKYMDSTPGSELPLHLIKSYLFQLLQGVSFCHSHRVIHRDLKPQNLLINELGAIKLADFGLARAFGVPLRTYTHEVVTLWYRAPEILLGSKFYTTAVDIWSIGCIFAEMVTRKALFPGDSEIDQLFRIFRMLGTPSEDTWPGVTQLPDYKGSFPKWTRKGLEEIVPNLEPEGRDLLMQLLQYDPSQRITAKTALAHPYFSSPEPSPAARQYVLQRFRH
Chain of Cyclin-dependent kinase 8 (Homo sapiens) (P49336 whole entry): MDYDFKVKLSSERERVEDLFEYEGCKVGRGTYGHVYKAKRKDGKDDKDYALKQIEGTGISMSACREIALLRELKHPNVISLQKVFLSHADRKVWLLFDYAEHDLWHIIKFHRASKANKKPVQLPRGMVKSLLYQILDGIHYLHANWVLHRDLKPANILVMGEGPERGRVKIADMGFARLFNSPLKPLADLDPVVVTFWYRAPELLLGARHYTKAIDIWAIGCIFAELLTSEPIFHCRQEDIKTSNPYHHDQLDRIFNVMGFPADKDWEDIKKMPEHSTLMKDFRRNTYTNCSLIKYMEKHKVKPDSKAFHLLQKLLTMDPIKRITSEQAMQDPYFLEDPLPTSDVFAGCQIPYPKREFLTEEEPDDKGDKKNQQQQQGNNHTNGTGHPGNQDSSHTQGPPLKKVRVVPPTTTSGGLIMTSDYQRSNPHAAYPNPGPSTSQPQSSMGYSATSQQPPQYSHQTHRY
Chain of Cyclin-dependent kinase 1 (Homo sapiens) (P06493 whole entry, looked up): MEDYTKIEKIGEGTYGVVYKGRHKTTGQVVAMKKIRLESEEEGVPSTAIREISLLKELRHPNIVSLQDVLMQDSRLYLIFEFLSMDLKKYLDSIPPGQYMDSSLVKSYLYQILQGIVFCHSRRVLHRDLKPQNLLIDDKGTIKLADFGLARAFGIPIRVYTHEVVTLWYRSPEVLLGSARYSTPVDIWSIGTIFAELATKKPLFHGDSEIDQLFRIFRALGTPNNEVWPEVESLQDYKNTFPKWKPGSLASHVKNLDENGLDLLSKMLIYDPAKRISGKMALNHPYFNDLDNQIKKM
Chain of Calcium/calmodulin-dependent protein kinase type 1 (Homo sapiens) (Q14012 whole entry, looked up): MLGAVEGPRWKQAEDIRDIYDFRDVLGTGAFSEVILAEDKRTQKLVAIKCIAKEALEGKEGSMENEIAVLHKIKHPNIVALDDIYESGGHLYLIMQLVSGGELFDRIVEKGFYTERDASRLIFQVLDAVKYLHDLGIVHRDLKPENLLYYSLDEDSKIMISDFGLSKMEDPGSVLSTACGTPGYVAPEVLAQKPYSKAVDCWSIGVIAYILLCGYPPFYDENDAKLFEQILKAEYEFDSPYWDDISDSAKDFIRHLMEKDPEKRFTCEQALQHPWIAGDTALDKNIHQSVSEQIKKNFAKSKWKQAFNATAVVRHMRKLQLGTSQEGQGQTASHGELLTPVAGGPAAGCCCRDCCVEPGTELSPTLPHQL
Chain of Dual specificity protein kinase TTK (Homo sapiens) (P33981 whole entry): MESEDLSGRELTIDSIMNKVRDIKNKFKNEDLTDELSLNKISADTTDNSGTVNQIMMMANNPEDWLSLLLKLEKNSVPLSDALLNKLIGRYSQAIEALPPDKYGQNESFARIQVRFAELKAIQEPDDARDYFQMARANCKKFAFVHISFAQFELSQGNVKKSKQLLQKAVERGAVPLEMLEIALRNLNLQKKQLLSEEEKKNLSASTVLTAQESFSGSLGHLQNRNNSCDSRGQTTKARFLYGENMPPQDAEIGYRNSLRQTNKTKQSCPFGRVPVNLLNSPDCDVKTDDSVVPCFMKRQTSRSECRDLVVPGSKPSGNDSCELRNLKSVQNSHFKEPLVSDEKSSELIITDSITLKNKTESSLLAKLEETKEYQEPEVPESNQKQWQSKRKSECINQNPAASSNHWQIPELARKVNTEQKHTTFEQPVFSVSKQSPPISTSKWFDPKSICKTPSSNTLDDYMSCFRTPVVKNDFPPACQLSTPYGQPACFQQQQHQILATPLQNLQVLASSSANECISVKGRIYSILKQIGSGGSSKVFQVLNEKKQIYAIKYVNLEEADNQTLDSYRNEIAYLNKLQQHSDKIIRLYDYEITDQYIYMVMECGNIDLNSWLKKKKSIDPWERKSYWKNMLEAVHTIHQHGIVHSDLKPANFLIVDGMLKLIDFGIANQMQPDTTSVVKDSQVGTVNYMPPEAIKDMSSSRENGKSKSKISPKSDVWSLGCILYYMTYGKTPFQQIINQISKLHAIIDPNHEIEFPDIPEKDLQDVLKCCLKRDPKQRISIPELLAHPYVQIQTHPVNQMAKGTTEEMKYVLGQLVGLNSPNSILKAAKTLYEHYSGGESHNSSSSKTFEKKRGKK
Chain of Mitogen-activated protein kinase kinase kinase 9 (Homo sapiens) (P80192 whole entry, looked up): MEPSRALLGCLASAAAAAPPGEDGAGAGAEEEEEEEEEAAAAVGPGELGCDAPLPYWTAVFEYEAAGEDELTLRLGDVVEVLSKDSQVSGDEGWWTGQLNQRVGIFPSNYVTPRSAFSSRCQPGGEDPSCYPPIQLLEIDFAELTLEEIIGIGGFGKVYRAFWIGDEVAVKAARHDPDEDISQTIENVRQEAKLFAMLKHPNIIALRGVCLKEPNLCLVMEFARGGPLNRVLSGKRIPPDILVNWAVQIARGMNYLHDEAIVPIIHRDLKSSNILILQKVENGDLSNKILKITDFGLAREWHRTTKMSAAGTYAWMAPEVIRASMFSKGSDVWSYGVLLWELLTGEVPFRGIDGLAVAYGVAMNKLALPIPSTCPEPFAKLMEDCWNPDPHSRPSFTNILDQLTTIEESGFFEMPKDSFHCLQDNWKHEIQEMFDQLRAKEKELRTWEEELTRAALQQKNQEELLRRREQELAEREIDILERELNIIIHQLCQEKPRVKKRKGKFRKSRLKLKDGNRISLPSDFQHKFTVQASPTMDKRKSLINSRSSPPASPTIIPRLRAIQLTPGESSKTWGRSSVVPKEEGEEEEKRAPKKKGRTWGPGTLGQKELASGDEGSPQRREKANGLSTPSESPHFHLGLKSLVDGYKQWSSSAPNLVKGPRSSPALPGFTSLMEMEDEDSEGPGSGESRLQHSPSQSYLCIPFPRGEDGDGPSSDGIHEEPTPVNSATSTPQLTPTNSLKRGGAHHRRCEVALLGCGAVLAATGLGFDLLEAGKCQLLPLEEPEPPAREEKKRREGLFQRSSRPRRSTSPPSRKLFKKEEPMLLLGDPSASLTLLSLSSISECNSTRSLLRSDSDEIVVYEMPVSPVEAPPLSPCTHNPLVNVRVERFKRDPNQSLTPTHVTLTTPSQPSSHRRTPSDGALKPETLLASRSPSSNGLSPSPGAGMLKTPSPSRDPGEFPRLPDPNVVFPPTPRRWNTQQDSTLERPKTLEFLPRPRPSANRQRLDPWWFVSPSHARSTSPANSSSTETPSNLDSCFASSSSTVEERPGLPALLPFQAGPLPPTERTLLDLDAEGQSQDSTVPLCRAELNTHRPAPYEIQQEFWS

Row | SMILES | IC50 (MIA PaCa-2 [1]) | IC50 [3] | IC50 (CDK6/cyclin D1) | IC50 (BXPC-3) | also measured
1 | O=C(Nc1ccccc1Cl)c1cc2cnc(Nc3ccc(N4CCNCC4)cn3)nc2n1C1CCCC1 | 2.17 µM | 0.023 µM | 0.0528 µM | 4.35 µM | inhibition [2]: Active; inhibition [4]: Active
2 | CN(C)C(=O)c1cc2cnc(Nc3ccc(Cl)cc3)nc2n1C1CCCC1 | 13 µM | 0.143 µM |  |  | 
3 | CN(C)C(=O)c1cc2cnc(NC3CCCCC3)nc2n1C1CCCC1 | 25 µM | 0.379 µM |  |  | 
4 | O=C(Nc1ccccc1)c1cc2cnc(Nc3ccc(N4CCNCC4)cn3)nc2n1C1CCCC1 | 2.8 µM | 0.0287 µM | 0.0638 µM | 5.12 µM | inhibition [2]: Active; inhibition [4]: Active
5 | CC(=O)c1c(C)c2cnc(Nc3ccc(N4CCNCC4)cn3)nc2n(C2CCCC2)c1=O [PALBOCICLIB] | 10.6 µM |  |  |  | 
6 | Cc1ccccc1NC(=O)c1cc2cnc(Nc3ccc(N4CCNCC4)cn3)nc2n1C1CCCC1 | 2.5 µM | 0.0282 µM | 0.064 µM | 3.34 µM | inhibition [2]: Active; inhibition [4]: Active
7 | CCN1CCN(Cc2ccc(Nc3ncc(F)c(-c4cc(F)c5nc(C)n(C(C)C)c5c4)n3)nc2)CC1 [ABEMACICLIB] | 5.8 µM |  |  |  | 
8 | CN(C)C(=O)c1cc2cnc(Nc3ccc(N4CCNCC4)cn3)nc2n1C1CCCC1 [RIBOCICLIB] | 10.7 µM |  |  | 68.4 µM | half-life [5]: 146 min; half-life [6]: > 30 min; Activity (MIA PaCa-2 [7]): 4.09%; Papp [8]: 123 ×10⁻⁶ cm/s; solubility [9]: > 64 µg/mL; Activity (MIA PaCa-2 [10]): 77.2%; Activity (MIA PaCa-2 [11]): 27.53%; Activity (MIA PaCa-2 [12]): 22.12%; Activity (MIA PaCa-2 [13]): 5.5%; Activity (MIA PaCa-2 [14]): 66.97%; Papp [15]: < 1 ×10⁻⁶ cm/s; Activity (MIA PaCa-2 [16]): 72.41%; Activity (MIA PaCa-2 [17]): 18.72%; Activity (MIA PaCa-2 [18]): 5.47%
9 | O=C(Nc1ccccc1)c1cc2cnc(N3CCN(c4ccc(Cl)cc4)CC3)nc2n1C1CCCC1 | > 200 µM | > 100 µM |  |  | 
10 | COc1ccc(NC(=O)c2cc3cnc(Nc4ccc(N5CCNCC5)cn4)nc3n2C2CCCC2)cc1 | 2.88 µM | 0.121 µM | 0.391 µM | 8.97 µM | 
11 | COc1cccc(NC(=O)c2cc3cnc(Nc4ccc(N5CCNCC5)cn4)nc3n2C2CCCC2)c1 | 2.65 µM | 0.0534 µM | 0.169 µM | 10.5 µM | 
12 | CN(C)C(=O)c1cc2cnc(Nc3ccccc3)nc2n1C1CCCC1 | 54.9 µM | 0.0929 µM |  |  | 
13 | CCC(CO)Nc1ncc2cc(C(=O)N(C)C)n(C3CCCC3)c2n1 (stereo unspecified) | 30.9 µM | 0.523 µM |  |  | 
14 | COc1ccc(NC(=O)c2cc3cnc(Nc4ccc(N5CCNCC5)cn4)nc3n2C2CCCC2)c(OC)c1 | 2.23 µM | 0.0281 µM | 0.268 µM | 3.65 µM | 
15 | O=C(Nc1ccccc1C(F)(F)F)c1cc2cnc(Nc3ccc(N4CCNCC4)cn3)nc2n1C1CCCC1 | 3.16 µM | 0.0603 µM | 0.666 µM | 8.04 µM | inhibition [2]: Active; inhibition [4]: Active
16 | CN(C)C(=O)c1cc2cnc(Nc3ccc(N4CCNCC4)cn3)nc2n1Cc1ccccc1 | 30.4 µM | > 100 µM |  |  | 
17 | O=C(Nc1ccccc1)c1cc2cnc(Nc3ccc(N4CCNCC4)cn3)nc2n1Cc1ccccc1 | 3.6 µM | > 100 µM |  |  | inhibition [19]: inactive; inhibition [20]: inactive; inhibition [21]: inactive; inhibition [22]: inactive; inhibition [23]: inactive; inhibition [2]: inactive; inhibition [24]: inactive; inhibition [25]: inactive; inhibition [26]: inactive; inhibition [27]: inactive; inhibition [28]: inactive; inhibition [29]: inactive; inhibition [4]: inactive; inhibition [30]: inactive; inhibition [31]: inactive; inhibition [32]: inactive; inhibition [33]: inactive
18 | O=C(Nc1ccccc1)c1cc2cnc(Nc3ccccc3)nc2n1C1CCCC1 | 14 µM | 1.19 µM |  |  | 
19 | O=C(Nc1ccc[n+]([O-])c1)c1cc2cnc(Nc3ccc(N4CCNCC4)cn3)nc2n1C1CCCC1 | 124 µM | 3.05 µM |  |  | 
20 | CN(C)C(=O)c1cc2cnc(Nc3cccnc3)nc2n1C1CCCC1 | 26 µM | 0.315 µM |  |  | 
21 | Cc1cc(C)nc(NS(=O)(=O)c2ccc(Nc3ncc4cc(C(=O)N(C)C)n(C5CCCC5)c4n3)cc2)n1 | 8.25 µM | 0.15 µM |  |  | half-life [5]: 25.1 min; half-life [6]: > 30 min; Activity (MIA PaCa-2 [7]): 27.08%; Papp [8]: 376 ×10⁻⁶ cm/s; solubility [9]: 7.5 µg/mL (≈ 14 µM); Activity (MIA PaCa-2 [10]): 35.53%; inhibition [34]: 99%; Activity (MIA PaCa-2 [11]): 36.86%; Activity (MIA PaCa-2 [12]): 39.11%; Activity (MIA PaCa-2 [13]): 18.44%; Activity (MIA PaCa-2 [14]): 44.7%; Papp [15]: 443 ×10⁻⁶ cm/s; Activity (MIA PaCa-2 [16]): 43.39%; Activity (MIA PaCa-2 [17]): 37.29%; Activity (MIA PaCa-2 [18]): 17.5%
22 | O=C(c1cc2cnc(Nc3ccc(N4CCNCC4)cn3)nc2n1C1CCCC1)N1CCCCC1 | 39.6 µM | 0.861 µM |  |  | 
23 | O=C(Nc1ccccc1F)c1cc2cnc(Nc3ccc(N4CCNCC4)cn3)nc2n1C1CCCC1 | 3.67 µM | 0.0453 µM | 0.369 µM | 8.37 µM | inhibition [2]: Active; inhibition [4]: Active
